The record followed here is patent US4109009A, “Analgesic, relaxant, and anti-inflammatory cyclopentanol derivatives” (Roussel Uclaf, priority 1975, dated 1978).

Structures are written as SMILES. ≈ marks a conversion by molar mass, not a printed value.

In experiment [1] the test system is prostaglandin synthetases of lungs of guinea pigs. The experiment in a line: Inhibitory effect against biosynthesis of prostaglandins from arachidonic acid (Vane). The format is biochemical. The conditions noted are these: guinea pig lung homogenate supernatant, arachidonic acid 10 μg, 30 minutes at 37° C; read-out on isolated rat colon; read-out: CI50 (the source's name). An excerpt:
D. Inhibitory effect against biosynthesis of prostaglandins
Synthesis of prostaglandins starting with arachidonic acid by means of prostaglandin synthetases of lungs of guinea pigs
This test used the procedure of Vane [Nature New-Biology, Vo. 231 (1971), p. 232-235] wherein the lungs of adult guinea pigs (two per series) were rapidly removed and washed with a modified, iced Bucher medium. The lung tissue was homogenized in a Turrax grinder in a minute and the homogenate was centrifuged for 20 minutes to 1200 g. The supernatant was used as a preparation of prostaglandin synthetases.
A solution of arachidonic acid in ethanol at a concentration of 10 mg/ml was diluted with a 0.2% aqueous sodium carbonate solution and was then diluted further with a modified Bucher medium to obtain a final acid concentration of 200 μg/ml. The biosynthesis inhibitors are put into aqueous on dilute alcohol (20% maximum) solutions. Tubes were prepared containing 1 ml of the prostaglandin synthetases preparation, 10 μg of arachidonic acid and 0.1 ml of inhibiting solution or, for the controls, an equal volume of water or dilute alcohol. The tubes were incubated with stirring for 30 minutes at 37° C in aerobic conditions and each test consisted of a tube containing a biosynthesis inhibitor, one biosynthesis control with incubated arachidonic acid and one control with non-incubated arachidonic acid. The latter control permitted a evaluation of amount of natural prostaglandins present in the ground lung and the results obtained with this control must therefore be taken away from the control of biosynthesis and from all the tests. The reactions are stopped by immersion in boiling water until the proteins are coagulated. The dosage of "prostaglandin like" activity was effected biologically on the isolated rat colon suspended in Krebs liquid, mixed to augment the specificity, with antagonists to other contracturant mediators susceptible to interfere. The antagonists were mepyramine, scopolamine, methysergide, phenoxybenzamine and propanolol.
A comparison of the results registered in the presence or absence of a test product permitted the calculation of the percentage of biosynthesis inhibition. The CI50 dose which inhibited by 50% the biosynthesis activity was graphically obtained by straight line representing the percent of inhibition with reference to the incubated controls against the log of the concentration in μg/ml and the results are reported in Table IV.

Another experiment deals with guinea pig ileon. As to the kind of experiment: Relaxant activity on the guinea pig ileon. The conditions noted are these: Cavia porcellus, Tyrode 37° C, concentration suppressing spontaneous contractions and relaxing the organ, read-out: Relaxant action. As for the experimental part: B. Relaxant Activity on the guinea pig ileon
The relaxant effect of the test compounds was determined on guinea pig ileon using the procedure of Test A above. The terminal portion of the guinea pig ileon was removed and washed with Tyrode solution at 37° C. It was then suspended in an bath of oxygenated Tyrode liquid at 37° C and the contractions were registered on a collector attached to a Sanborn polygraph. The test product was added to bath of the organ with a low volume and the concentration which caused a suppression of spontaneous contractions and relaxed the organ, cuasing a lowering of the line of the base was considered to be relaxant.

A further experiment relates to mice. The experiment in a line: Analgesic activity -- stretching provoked by acetic acid (Koster et al). The class given is in vivo. Conditions: Mus musculus, 0.25 h, oral, one half hour before intraperitoneal acetic acid, 15 minute observation, dose reducing stretchings by 50%, read-out: DA50 (the source's name). As for the experimental part: C. Analgesic Activity -- stretching provoked by acetic acid
The test procedure was that of Koster et al wherein an interitoneal injection of aqueous acetic acid in a concentration of 1% at a dose of 100 mg/kg caused in mice repeated movements of strectching and twisting which can persist for more than 6 hours. Analgesics prevent or lessen the syndrome. The test products were orally administered one half hour before the acetic acid injection and the mice were fasted from the day before the tests. The stretching were counted for each mouse during a 15 minute observation period beginning right after the acetic acid injection and the analgesic affect was expressed as a percentage of protection with respect to the controls.

The next experiment deals with prostaglandin E2. The experiment in a line: Antagonistic activity to the contracturant effect of prostaglandin E2 (isolated rat colon, method of Magnus). The conditions noted are these: Krebs 37° C, product added 30 seconds before PGE2 (5 to 10 ng/ml), 50% inhibition of contractions. As for the experimental part:
A. Antagonistic activity to the contracturant effect of prostaglandin E2
The antagonistic effect of the test compounds to the contracturant activity of prostaglandin E2 was determined by the method of Magnus wherein a portion of the colon adjacent to the caecum was removed from a rat and was washed with a Krebs solution at 37° C. The colon was then suspended in a bath of oxygenated Krebs liquid kept at 37° C and the contactions of the organ were registered with a collector attached to a Sanborn polygraph. The organ was first standarized with prostaglandin E2 to determine the concentration necessary to obtain a significant contraction (5 to 10 ng/ml). The antagonistic product was added to the bath 30 seconds before the standard dose of PGE2 and the intensity of the contraction was measured. The concentration of product which inhibited by 50% the contractions provoked by PGE2 was determined by the straight line effect-log of the dose and the CI50 is reported in Table I.

As for `C#C[C@@](/C=C/[C@H]1CC[C@@H](O)[C@@H]1C(=O)OCC)(CCCCC)OC1CCCCO1` (relative stereo) [P], the IC50 in experiment [1] came to 382 µM. Also, the minimal effective concentration in the experiment with guinea pig ileon came out at 5 µg/mL. Further, the ED50 with mice is ~100 mg/kg.
Consider `CCCCC[C@H](O)/C=C/[C@H]1CC[C@H](O)[C@@H]1C(=O)OCC` (relative stereo) [B], for which the IC50 in experiment [1] was 376 µM. The minimal effective concentration in the experiment on guinea pig ileon came to 20 µg/mL. Also, in the experiment on mice, the ED50 worked out at 100 mg/kg.
Take `CCCCC[C@@H](/C=C/[C@H]1CC[C@H](O)[C@@H]1C(=O)CCC)OC1CCCCO1` (relative stereo) [S]: the IC50 in experiment [1] worked out at 628 µM.
Regarding `CCCCC[C@@H](/C=C/[C@H]1CC[C@@H](O)[C@@H]1C(=O)OCCC)OC1CCCCO1` (relative stereo) [M], the IC50 in experiment [1] was found to be 652 µM. In addition, the minimal effective concentration in the experiment with guinea pig ileon came out at 5 µg/mL.
As for `CCCCC[C@@H](CC[C@H]1CC[C@@H](O)[C@@H]1C(=O)OCC)OC1CCCCO1` (relative stereo) [K], the minimal effective concentration with guinea pig ileon is 5 µg/mL.
`CCCCCCCCCOC(=O)[C@H]1[C@@H](O)CC[C@@H]1/C=C/[C@@H](O)CCCCC` (relative stereo) [D]: the IC50 in experiment [1] was 523 µM. Also, the minimal effective concentration with guinea pig ileon stood at 10 µg/mL.
Turning to `C#C[C@@](O)(/C=C/[C@H]1CC[C@H](O)[C@@H]1C(=O)OCC)CCCCC` (relative stereo) [N], the minimal effective concentration with guinea pig ileon is 5 µg/mL.
Take `CCCCC[C@H](O)/C=C/[C@H]1CC[C@@H](O)[C@@H]1C(=O)OCC` (relative stereo) [A]: the “CI50 against PGE2” value in the experiment with prostaglandin E2 stood at 20 µg/mL (≈ 70.3 µM). Besides, the minimal effective concentration in the experiment on guinea pig ileon is 20 µg/mL.
Regarding `C#C[C@@](/C=C/[C@H]1CC[C@H](O)[C@@H]1C(=O)OCC)(CCCCC)OC1CCCCO1` (relative stereo) [Product O, Ethyl (1RS, 2SR, 5RS, 3'SR) (1'E) 2-hydroxy-5-(3'-α-tetrahydropyranyloxy-3'-ethynyl-1'-octenyl)-cyclopentanecarboxylate], the minimal effective concentration in the experiment on guinea pig ileon came out at 10 µg/mL.
Consider `C#C[C@@](/C=C/[C@H]1CC[C@H](O)[C@@H]1C(=O)OCC)(CCCCC)OC1CCCCO1` (relative stereo) [O], for which the IC50 in experiment [1] stood at 229 µM.
Take `CCCCC[C@@H](/C=C/[C@H]1CC[C@@H](O)[C@@H]1C(=O)CCC)OC1CCCCO1` (relative stereo) [Q]: in the experiment with guinea pig ileon, the minimal effective concentration came to 10 µg/mL.
For `CCCCC[C@@H](/C=C/[C@H]1CC[C@@H](O)[C@H]1C(=O)OCC)OC1CCCCO1` (relative stereo) [R], the IC50 in experiment [1] came to 542 µM.
For `CCCCC[C@@H](/C=C/[C@H]1CC[C@@H](O)[C@@H]1C(=O)OC)OC1CCCCO1` (relative stereo) [L], the minimal effective concentration in the experiment on guinea pig ileon worked out at 5 µg/mL.
As for `CCCCC[C@@H](/C=C/[C@H]1CC[C@@H](O)[C@@H]1C(=O)OCC)OC1CCCCO1` (relative stereo) [G], the “CI50 against PGE2” value in the experiment on prostaglandin E2 worked out at 20 µg/mL (≈ 54.3 µM). Also, the IC50 in experiment [1] came to 204 µM. The minimal effective concentration in the experiment with guinea pig ileon was found to be 20 µg/mL. Moreover, the ED50 in the experiment on mice was ~100 mg/kg.
`CCCCCC(C)(O)/C=C/[C@H]1CC[C@H](O)[C@@H]1C(=O)OCC` (some centres unmarked) [E]: the IC50 in experiment [1] was 604 µM. Further, the minimal effective concentration with guinea pig ileon was determined as 5 µg/mL.
Turning to `CCCCC[C@@H](/C=C/[C@H]1CC[C@H](O)[C@@H]1C(=O)OC)OC1CCCCO1` (relative stereo) [I], the minimal effective concentration in the experiment on guinea pig ileon is 5 µg/mL.
Regarding `CCCCCC(C)(O)/C=C/[C@H]1CC[C@@H](O)[C@@H]1C(=O)OCC` (some centres unmarked) [C], the IC50 in experiment [1] worked out at 503 µM. The minimal effective concentration in the experiment with guinea pig ileon worked out at 1 µg/mL.
With `CCCCC[C@@H](/C=C/[C@H]1CC[C@H](O)[C@@H]1C(=O)OCC)OC1CCCCO1` (relative stereo) [F], in the experiment with prostaglandin E2, the “CI50 against PGE2” value was determined as 20 µg/mL (≈ 54.3 µM). The IC50 in experiment [1] stood at 54 µM. The minimal effective concentration in the experiment with guinea pig ileon stood at 20 µg/mL. Besides, the ED50 in the experiment on mice is ~100 mg/kg.
Consider `CCCCC[C@@H](CC[C@H]1CC[C@H](O)[C@@H]1C(=O)OCC)OC1CCCCO1` (relative stereo) [H], for which the minimal effective concentration with guinea pig ileon was 10 µg/mL.
As to `CCCCC[C@@H](/C=C/[C@H]1CC[C@H](O)[C@@H]1C(=O)OCCC)OC1CCCCO1` (relative stereo) [J], the minimal effective concentration in the experiment on guinea pig ileon came to 10 µg/mL.
